Experimental findings from US20150315130A1, “New positive allosteric modulators of nicotinic acetylcholine receptor” (H. LUNDBECK A/S, priority 2012, published 2015) are described below.

Structures are written as SMILES.

T1 sequence (P36544 23-502): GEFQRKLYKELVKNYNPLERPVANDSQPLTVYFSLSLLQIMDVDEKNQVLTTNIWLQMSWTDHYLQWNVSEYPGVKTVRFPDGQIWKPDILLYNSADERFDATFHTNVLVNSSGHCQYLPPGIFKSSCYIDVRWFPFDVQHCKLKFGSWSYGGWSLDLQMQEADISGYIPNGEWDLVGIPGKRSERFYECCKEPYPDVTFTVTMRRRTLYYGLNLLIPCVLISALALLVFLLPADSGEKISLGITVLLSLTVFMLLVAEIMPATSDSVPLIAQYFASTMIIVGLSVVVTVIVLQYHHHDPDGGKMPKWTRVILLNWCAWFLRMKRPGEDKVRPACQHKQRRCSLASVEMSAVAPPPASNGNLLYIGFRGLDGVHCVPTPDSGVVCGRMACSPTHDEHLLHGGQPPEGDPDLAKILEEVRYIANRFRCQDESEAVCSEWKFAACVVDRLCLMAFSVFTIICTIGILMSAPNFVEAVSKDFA

This experiment has as its target T1, human α7 receptor (Homo sapiens, UniProt P36544).
T1 construct: host or cells: rat GH4C1 cell line
The experiment can be described thus: α7 NNR flux assay (FDSS calcium flux, Calcium-4 dye, PAM mode with acetylcholine). The format is cell-based. To be noted: human α7 receptor stably expressed in rat GH4C1 cells; enhancement of response to 20 μM acetylcholine; % modulation relative to PNU-120596 set to 100%. As to the method: The nicotinic acetylcholine receptor α7 is a calcium-permeable ion channel, whose activity can be measured by over expression in mammalian cells or oocytes. These two individual assays are described in Example 2 and 3, respectively.
In this version of the assay, the human α7 receptor is stably expressed in the rat GH4C1 cell line. The assay was used to identify positive allosteric modulators (PAMs) of the α7 receptor. Activation of the channel was measured by loading cells with the calcium-sensitive fluorescent dye Calcium-4 (Assay kit from Molecular Devices), and then measuring real-time changes in fluorescence upon treatment with test compounds.
The cell line ChanClone GH4C1-nAChRalphα7 from Genionics was seeded from frozen stock in 384-well plates in culture media 2-3 days before experiment to form an approximately 80% confluent layer on the day of experiment.
The cell culture was split into “22.5 cm×22.5 cm”-plates with approximately 100×10^3 cells/cm^2. After four days incubation in a humidified incubator at 37° C. and 5% CO2, it had grown to an 80-90% confluent layer, and the cells were harvested.
Two or three days before the experiment the cells were seeded in 384 well plates from Greiner bio-one (781946, CELLCOAT, Poly-D-Lysine, black, μClear).
The media was poured off and the plate washed with PBS and left to drain. 5 mL Trypsin was added, cells were washed and incubated (at room temperature) for about 10 seconds. Trypsin was poured of quickly and the cells were incubated for 2 minutes at 37° C. (if the cells were not already detached). Cells were resuspended in 10 mL culture media and transferred to 50 mL tubes.
The cell suspension was counted (NucleoCounter, total cell count) from the first plates to estimate the total cell number of the whole batch.
The cells were seeded in 384 well plates with 30 μL/well (30000 cells/well) while stirring the cell suspension or otherwise preventing the cells from precipitating.
The plates were incubated at room temperature for 30-45 minutes.
The plates were placed in incubator for two days (37° C. and 5% CO2).
The loading buffer was 5% v/v Calcium-4 Kit and 2.5 mM Probenecid in assay buffer.
Culture media were removed from the cell plates and 20 μL loading buffer was added in each well. The cell plates were placed in trays and incubated 90 minutes in the incubator (37° C.). Thereafter the plates were incubated 30 minutes at room temperature, still protected from light.
Now the cell plates were ready to run in the Functional Drug Screening System (FDSS).
The assay buffer was HBSS with 20 mM HEPES, pH 7.4 and 3 mM CaCl2.
200 nL 10 mM compound solution in DMSO was diluted in 50 μL assay buffer. The final test concentrations in the cell plates were 20-10-5-2.5-1.25-0.625-0.312-0.156-0.078-0.039 μM. Assay buffer and 3 μM PNU-120596 were used for control.
The agonist acetylcholine was added to a final concentration of 20 μM (˜E0100). In the FDSS7000 the Ex480-Em540 was measured with 1 second intervals. The baseline was made of 5 frames before addition of test compounds, and 95 frames more were made before addition of acetylcholine. The measurement stopped 30 frames after the 2nd addition. Raw data for each well were collected as “the maximum fluorescence count” in the interval 100-131 seconds and as “the average fluorescence count” in the interval 96-100 seconds. The positive allosteric modulation in the 2nd addition was the enhancement of agonist response with test compound compared to agonist alone.
Results were calculated as % modulation of test compound compared to the reference PNU-120596 set to 100%.
Background: Calcium assays in cells follow changes in intracellular calcium, usually with a dye or a luminescent sensor.
For `C[C@H](NC(=O)[C@H]1C[C@@H]1c1ccccc1)c1ccc(F)cc1` [Compound 3, (1S,2S)-2-Phenyl-cyclopropanecarboxylic acid [(S)-1-(4-fluoro-phenyl)-ethyl]-amide], the concentration for a half-maximal effect (EC50) (commonly the concentration at which the effect is half-maximal) came out at 2400 nM.
To `COc1ccc([C@H](CO)NC(=O)[C@H]2C[C@@H]2c2ccc(F)cc2)cc1` [Compound 13, (1S,2S)-2-(4-Fluoro-phenyl)-cyclopropanecarboxylic acid [(R)-2-hydroxy-1-(4-methoxy-phenyl)-ethyl]-amide] belongs 510 nM.
Turning to `COC[C@H](NC(=O)[C@H]1C[C@@H]1c1cccc(F)c1)c1ccc(OC)cc1` [Compound 21, (1S,2S)-2-(3-Fluoro-phenyl)-cyclopropanecarboxylic acid [(R)-2-methoxy-1-(4-methoxy-phenyl)-ethyl]-amide], the 50% effective concentration (EC50) came out at 1100 nM.
Take `O=C(N[C@@H](CO)c1ccc(OCCF)cc1)[C@H]1C[C@@H]1c1ccc(F)cc1` [Compound 25, (1S,2S)-2-(4-Fluoro-phenyl)-cyclopropanecarboxylic acid {(R)-1-[4-(2-fluoro-ethoxy)-phenyl]-2-hydroxy-ethyl}-amide]: the EC50 was 140 nM.
On to `O=C(N[C@@H](CO)c1ccc(O)cc1)[C@H]1C[C@@H]1c1ccccc1` [Compound 18, (1S,2S)-2-Phenyl-cyclopropanecarboxylic acid [(R)-2-hydroxy-1-(4-hydroxy-phenyl)-ethyl]-amide], for which the EC50 turned out to be 3900 nM.
Consider `O=C(N[C@@H](CO)c1ccc(O)cc1)[C@H]1C[C@@H]1c1cccc(F)c1` [Compound 23, (1S,2S)-2-(3-Fluoro-phenyl)-cyclopropanecarboxylic acid [(R)-2-hydroxy-1-(4-hydroxy-phenyl)-ethyl]-amide], for which the EC50 is 3800 nM.
On to `C[C@H](NC(=O)[C@H]1C[C@@H]1c1ccccc1)c1ccccc1F` [Compound 12, (1S,2S)-2-Phenyl-cyclopropanecarboxylic acid [(S)-1-(2-fluoro-phenyl)-ethyl]-amide], for which the EC50 amounted to 1900 nM.
For `COc1ccc([C@H](CO)NC(=O)[C@H]2C[C@@H]2c2cccc(F)c2)cc1` [Compound 14, (1S,2S)-2-(3-Fluoro-phenyl)-cyclopropanecarboxylic acid [(R)-2-hydroxy-1-(4-methoxy-phenyl)-ethyl]-amide], the half-maximal effective concentration (EC50) was found to be 400 nM.
For `COc1ccc([C@H](CO)NC(=O)[C@H]2C[C@@H]2c2ccccc2F)cc1` [Compound 15, (1S,2S)-2-(2-Fluoro-phenyl)-cyclopropanecarboxylic acid [(R)-2-hydroxy-1-(4-methoxy-phenyl)-ethyl]-amide], the EC50 came to 1200 nM.
To `O=C(N[C@@H](CO)c1ccc(OC(F)(F)F)cc1)[C@H]1C[C@@H]1c1ccccc1` [Compound 7, (1S,2S)-2-Phenyl-cyclopropanecarboxylic acid [(R)-2-hydroxy-1-(4-trifluoromethoxy-phenyl)-ethyl]-amide] belongs 3600 nM; to `COc1cccc([C@H](C)NC(=O)[C@H]2C[C@@H]2c2ccccc2)c1` [Compound 11, (1S,2S)-2-Phenyl-cyclopropanecarboxylic acid [(S)-1-(3-methoxy-phenyl)ethyl]-amide], 3000 nM.
Regarding `O=C(N[C@@H](CCO)c1ccccc1)[C@H]1C[C@@H]1c1ccccc1` [Compound 2, (1S,2S)-2-Phenyl-cyclopropanecarboxylic acid ((S)-3-hydroxy-1-phenyl-propyl)-amide], the 50% effective concentration (EC50) came out at 4900 nM.
For the molecule `COc1ccc([C@H](CO)NC(=O)[C@H]2C[C@@H]2c2cccc(F)c2)cc1` [Compound 4, (1S,2S)-2-(3-Fluoro-phenyl)-cyclopropanecarboxylic acid [(R)-2-hydroxy-1-(4-methoxy-phenyl)-ethyl]-amide], the concentration giving a half-maximal response (EC50) was determined as 1200 nM.
The value for `CCOc1ccc([C@H](CO)NC(=O)[C@H]2C[C@@H]2c2ccccc2)cc1` [Compound 8, (1S,2S)-2-Phenyl-cyclopropanecarboxylic acid [(R)-1-(4-ethoxy-phenyl)-2-hydroxy-ethyl]-amide] was 270 nM; that for `O=C(N[C@@H](CO)c1ccc(O)cc1)[C@H]1C[C@@H]1c1ccc(F)cc1` [Compound 22, (1S,2S)-2-(4-Fluoro-phenyl)-cyclopropanecarboxylic acid [(R)-2-hydroxy-1-(4-hydroxy-phenyl)-ethyl]-amide] was 3200 nM; that for `COc1ccc([C@H](C)NC(=O)[C@H]2C[C@@H]2c2ccccc2)cc1` [Compound 1, (1S,2S)-2-Phenyl-cyclopropanecarboxylic acid [(S)-1-(4-methoxy-phenyl)ethyl]-amide] was 1500 nM.
On to `C[C@H](NC(=O)[C@H]1C[C@@H]1c1ccccc1)c1cccc(F)c1` [Compound 6, (1S,2S)-2-Phenyl-cyclopropanecarboxylic acid [(S)-1-(3-fluoro-phenyl)-ethyl]-amide], for which the EC50 amounted to 3100 nM.
`COC[C@H](NC(=O)[C@H]1C[C@@H]1c1ccc(F)cc1)c1ccc(OC)cc1` [Compound 20, (1S,2S)-2-(4-Fluoro-phenyl)-cyclopropanecarboxylic acid [(R)-2-methoxy-1-(4-methoxy-phenyl)-ethyl]-amide]: the EC50 was 84 nM.
To `O=C(N[C@@H](CO)c1ccc(OCCF)cc1)[C@H]1C[C@@H]1c1ccccc1` [Compound 24, (1S,2S)-2-Phenyl-cyclopropanecarboxylic acid {(R)-1-[4-(2-fluoro-ethoxy)phenyl]-2-hydroxy-ethyl}-amide] belongs 1500 nM; to `COC[C@H](NC(=O)[C@H]1C[C@@H]1c1ccccc1)c1ccc(OC)cc1` [Compound 16, (1S,2S)-2-Phenyl-cyclopropanecarboxylic acid [(R)-2-methoxy-1-(4-methoxy-phenyl)-ethyl]-amide], 160 nM; to `COc1ccc([C@H](CO)NC(=O)[C@H]2C[C@@H]2c2ccccc2)c(F)c1` [Compound 9, (1S,2S)-2-Phenyl-cyclopropanecarboxylic acid [(R)-1-(2-fluoro-4-methoxy-phenyl)-2-hydroxy-ethyl]-amide], 610 nM.
In the case of `Cc1ccc([C@H](C)NC(=O)[C@H]2C[C@@H]2c2ccccc2)cc1` [Compound 5, (1S,2S)-2-Phenyl-cyclopropanecarboxylic acid ((S)-1-p-tolyl-ethyl)-amide], the EC50 came out at 3800 nM.
Turning to `COC[C@H](NC(=O)[C@H]1C[C@@H]1c1ccccc1)c1ccc(O)cc1` [Compound 19, (1S,2S)-2-Phenyl-cyclopropanecarboxylic acid [(R)-1-(4-hydroxy-phenyl)-2-methoxy-ethyl]-amide], the EC50 worked out at 3600 nM.
Consider `CCOc1ccc([C@H](COC)NC(=O)[C@H]2C[C@@H]2c2ccccc2)cc1` [Compound 17, (1S,2S)-2-Phenyl-cyclopropanecarboxylic acid [(R)-1-(4-ethoxy-phenyl)-2-methoxy-ethyl]-amide], for which the concentration giving a half-maximal response (EC50) was found to be 33 nM.
Consider `COc1ccc([C@H](CO)NC(=O)[C@H]2C[C@@H]2c2ccccc2)cc1` [Compound 10, (1S,2S)-2-Phenyl-cyclopropanecarboxylic acid [(R)-2-hydroxy-1-(4-methoxy-phenyl)-ethyl]-amide], for which the EC50 was 645 nM.
